Assay results published in patent US8163758B2 (Parion Sciences, Inc., priority 2006, dated 2012).
Where a name gives a salt, the structure may show the parent alone.

How the values were obtained:
[1] = biological target: T1, epithelial sodium channel (ENaC) (Canis lupus familiaris, UniProt A0A8I3MKE6+A0A8I3Q679+Q95165); experiment: ENaC blocking activity, short circuit current in airway epithelial monolayers in Ussing chambers; assay type: cell-based; conditions: canine bronchial epithelia; for ENaC blocking potency relative to Amiloride: fold potency versus amiloride; for IC50: lumenal addition, propranolol 10 μM applied first
T1 construct: endogenous in cells; host or cells: primary canine bronchial epithelial cells cultured at air-liquid interface
T1 sequence (A0A8I3Q679 1-649): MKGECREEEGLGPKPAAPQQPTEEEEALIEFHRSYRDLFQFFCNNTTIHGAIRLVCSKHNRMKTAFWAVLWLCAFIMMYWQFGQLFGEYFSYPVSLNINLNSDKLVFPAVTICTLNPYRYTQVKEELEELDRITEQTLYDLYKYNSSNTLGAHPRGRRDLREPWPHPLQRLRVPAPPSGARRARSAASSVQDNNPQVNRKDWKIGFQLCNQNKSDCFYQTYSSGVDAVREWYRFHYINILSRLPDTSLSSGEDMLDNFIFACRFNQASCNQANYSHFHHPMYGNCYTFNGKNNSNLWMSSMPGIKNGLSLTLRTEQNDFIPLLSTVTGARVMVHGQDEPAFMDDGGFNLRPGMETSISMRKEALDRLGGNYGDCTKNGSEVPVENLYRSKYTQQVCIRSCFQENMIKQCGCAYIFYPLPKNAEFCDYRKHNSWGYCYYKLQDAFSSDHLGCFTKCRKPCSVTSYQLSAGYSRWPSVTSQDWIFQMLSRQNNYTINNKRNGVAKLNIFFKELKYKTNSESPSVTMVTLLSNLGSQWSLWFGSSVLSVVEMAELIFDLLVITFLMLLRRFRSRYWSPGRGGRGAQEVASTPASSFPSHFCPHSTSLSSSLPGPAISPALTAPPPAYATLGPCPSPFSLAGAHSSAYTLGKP
T1 sequence (Q95165 1-641): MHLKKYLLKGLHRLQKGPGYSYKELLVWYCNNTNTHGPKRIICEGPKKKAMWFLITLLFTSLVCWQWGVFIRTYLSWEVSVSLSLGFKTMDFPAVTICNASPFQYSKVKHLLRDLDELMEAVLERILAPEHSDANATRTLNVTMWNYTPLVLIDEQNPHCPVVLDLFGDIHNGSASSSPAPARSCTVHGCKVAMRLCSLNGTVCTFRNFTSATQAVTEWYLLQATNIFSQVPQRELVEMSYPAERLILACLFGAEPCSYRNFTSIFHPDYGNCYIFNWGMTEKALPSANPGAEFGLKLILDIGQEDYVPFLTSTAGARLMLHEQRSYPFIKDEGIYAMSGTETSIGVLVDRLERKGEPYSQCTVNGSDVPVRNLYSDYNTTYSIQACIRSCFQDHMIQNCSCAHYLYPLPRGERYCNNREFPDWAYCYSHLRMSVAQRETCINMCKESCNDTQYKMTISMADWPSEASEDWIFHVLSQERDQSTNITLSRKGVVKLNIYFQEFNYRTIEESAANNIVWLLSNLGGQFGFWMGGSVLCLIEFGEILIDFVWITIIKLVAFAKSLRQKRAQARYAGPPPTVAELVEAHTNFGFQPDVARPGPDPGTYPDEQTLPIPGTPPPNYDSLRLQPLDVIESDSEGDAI
T1 sequence (A0A8I3MKE6 1-646): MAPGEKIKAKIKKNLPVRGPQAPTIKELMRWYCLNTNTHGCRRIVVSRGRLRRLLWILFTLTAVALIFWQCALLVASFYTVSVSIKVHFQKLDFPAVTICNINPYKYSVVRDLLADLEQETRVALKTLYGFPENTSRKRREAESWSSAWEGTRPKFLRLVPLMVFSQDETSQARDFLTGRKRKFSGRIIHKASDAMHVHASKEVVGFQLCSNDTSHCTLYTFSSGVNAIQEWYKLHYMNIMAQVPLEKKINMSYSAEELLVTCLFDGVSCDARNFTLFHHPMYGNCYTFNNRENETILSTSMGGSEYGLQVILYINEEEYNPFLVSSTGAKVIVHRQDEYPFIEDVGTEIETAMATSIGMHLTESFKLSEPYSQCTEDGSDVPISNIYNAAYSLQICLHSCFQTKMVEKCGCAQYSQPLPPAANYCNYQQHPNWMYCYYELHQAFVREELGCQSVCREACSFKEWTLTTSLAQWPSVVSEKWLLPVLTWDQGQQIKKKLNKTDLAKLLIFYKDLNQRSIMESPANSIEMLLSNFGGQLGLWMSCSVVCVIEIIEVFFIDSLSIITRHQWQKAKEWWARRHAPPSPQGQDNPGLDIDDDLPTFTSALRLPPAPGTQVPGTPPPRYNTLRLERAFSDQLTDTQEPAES
Method: To assess epithelial sodium channel blocker potency the compounds of the present invention involves the determination of lumenal drug inhibition of airway epithelial sodium currents measured under short circuit current (ISC) using airway epithelial monolayers mounted in Ussing chambers. Cells obtained from freshly excised human, or dog airways are seeded onto porous 0.4 micrometer Transwell® Permeable Supports (Corning Inc. Acton, Mass.), cultured at air-liquid interface (ALI) conditions in hormonally defined media, and assayed for sodium transport activity (ISC) while bathed in Krebs Bicarbonate Ringer (KBR) in Ussing chambers. All test drug additions are to the lumenal bath with approximately half-log dose additions (from 1×10^−11 M to 6×10^−5 M), and the cumulative change in ISC (decreases) recorded. All drugs are prepared in dimethyl sulfoxide as stock solutions at a concentration of approximately 1×10^−2 and stored at −20° C. Six preparations are typically run in parallel; one preparation per run incorporates 552-02 as a positive control. Before the start of the concentration-effect relationship propranolol, a non-selective […], was applied to the lumenal bath (10 μM) to inhibit the beta agonist component of the designer multiple ligand (DML). All data from the voltage clamps are collected via a computer face and analyzed off-line.
Concentration-effect relationships for all compounds are considered and analyzed Using GraphPad Prism version 3.00 for Windows, GraphPad Software, San Diego Calif. USA. IC50 values, […], are calculated and compared to the 552-02 potency as a positive control.

Compound | melting point | ENaC blocking potency relative to Amiloride [1] [× Amiloride] | IC50 [1] [nM]
CC(=O)Nc1cc([C@@H](O)CNC(C)CCCc2ccc(CCCCNC(=N)NC(=O)c3nc(Cl)c(N)nc3N)cc2)ccc1O (stereo in doubt) (as salt: lactate) [Compound 175, N—(N-(4-(4-((S)-4-((R)-2-(3-acetamido-4-hydroxyphenyl)-2-hydroxyethylamino)pentyl)phenyl)butyl)carbamimidoyl)-3,5-diamino-6-chloropyrazine-2-carboxamide di-L-lactate] | 46 to 50 °C (dec.) |  | 
N=C(NCCCCc1ccc(CCCCN(C[C@H](O)c2ccc(O)c(NC=O)c2)C[C@H](O)c2ccc(O)c(NC=O)c2)cc1)NC(=O)c1nc(Cl)c(N)nc1N [Compound 14, N-{4-[4-(4-{bis-[2-(R)-hydroxy-2-(4-hydroxy-3-formylaminophenyl)-ethyl]amino}butyl)phenyl]butyl}-N′-(3,5-diamino-6-chloropyrazine-2-carbonyl)-guanidine diacetic acid salt] |  | 66 | 17.7
N=C(NCCCCc1ccc(CCCCN(C[C@H](O)c2ccc(O)c(CO)c2)C[C@H](O)c2ccc(O)c(CO)c2)cc1)NC(=O)c1nc(Cl)c(N)nc1N [Compound 67, N-{4-[4-(4-{bis-[2-(R)-hydroxy-2-(4-hydroxy-3-hydroxymethylphenyl)-ethyl]amino}butyl)-phenyl]butyl}-N′-(3,5-diamino-6-chloropyrazine-2-carbonyl)-guanidine] |  | 29 | 22.2
CC(CCCc1ccc(CCCCNC(=N)NC(=O)c2nc(Cl)c(N)nc2N)cc1)NC[C@H](O)c1cccc(O)c1 (stereo partly drawn) [Compound 143, 3,5-diamino-6-chloro-N-{N-[4-(4-{4-[(R)-2-hydroxy-2-(3-hydroxyphenyl)ethylamino]pentyl}phenyl)butyl]carbamimidoyl}pyrazine-2-carboxamide] | 82 to 86 °C |  | 

Other lines, results leading:

melting point | ENaC blocking potency relative to Amiloride [1] [× Amiloride] | IC50 [1] [nM] | Compound
116 to 119 °C |  |  | C[C@H](CCCc1ccc(CCCCNC(=N)NC(=O)c2nc(Cl)c(N)nc2N)cc1)NC[C@H](O)c1ccc(O)c(NC=O)c1 (as salt: lactate) (hydrate or solvate) [Compound 30, N-(5-{2-[4-(4-{4-[N′-(3,5-diamino-6-chloropyrazine-2-carbonyl)-guanidino]butyl}phenyl)-1-methylbutylamino]-1-(R)-hydroxyethyl}-2-hydroxyphenyl)formamide]
128 to 130 °C |  |  | N=C(NCCCCc1ccc(CCCCN(C[C@H](O)c2ccc(O)c(NC=O)c2)C[C@H](O)c2ccc(O)c(NC=O)c2)cc1)NC(=O)c1nc(Cl)c(N)nc1N (as salt: salt) [Compound 14, N-{4-[4-(4-{bis-[2-(R)-hydroxy-2-(4-hydroxy-3-formylaminophenyl)-ethyl]amino}butyl)phenyl]butyl}-N′-(3,5-diamino-6-chloropyrazine-2-carbonyl)-guanidine diacetic acid salt]
120 to 124 °C (dec.) | 120 | 10 | N=C(NCCCCc1ccc(OCCNC[C@H](O)c2ccc(O)c(NC=O)c2)cc1)NC(=O)c1nc(Cl)c(N)nc1N [Compound 19, N-(5-{2-[2-(4-{4-[N-(3,5-diamino-6-chloropyrazine-2-carbonyl)guanidine]butyl}phenoxy)ethylamino]-1-(R)-hydroxylethyl}-2-hydroxyphenyl)-formamide]
 | 154 | 6.5 | N=C(NCCCCc1ccc(CCCCNC[C@H](O)c2ccc(O)c(CO)c2)cc1)NC(=O)c1nc(Cl)c(N)nc1N [Compound 63, N-(3,5-diamino-6-chloropyrazine-2-carbonyl)-N′-[4-(4-{4-[2-(R)-hydroxy-2-(4-hydroxy-3-hydroxymethylphenyl)ethylamino]butyl}phenyl)butyl]-guanidine]
